What was measured:
[1] = test system: oxygen-induced retinopathy; conditions: OIR mice; UDCA 50 mg/kg, P7-P17; cited from earlier work
acute pancreatitis = conditions: AP mice gavaged with TUDCA; cited from earlier work
osteoblasts = conditions: in vitro, cited from earlier work
osteoporosis = conditions: OVX mice, vs PBS treatment group, cited from earlier work
IL-6 production = conditions: cited from earlier work
[2] = test system: Experimental autoimmune encephalomyelitis; test: Experimental autoimmune encephalomyelitis (EAE) clinical score; assay type: in vivo; conditions: female SJL/J mice, by gavage, alone and/or with Copaxone, observed at days 10, 20 and 30; bar graph
Procedure: (§1) Experimental autoimmune encephalomyelitis was induced in female SJL/J (6-8 weeks old) by injection PLP139-151 peptide (50 μg) emulsified in complete Freund's adjuvant (BD Diagnostics), containing killed Mycobacterium tuberculosis (400 μg/ml) in a volume of (50 μl per area). Animals were randomized to receive by QuadraMune™ by gavage, and/or Copaxone. Mice where observed for symptoms at days 10, 20 and 30.
Clinical scores (0, no symptoms; 1, limp tail; 2, partial paralysis of hind limbs; 3, complete paralysis of hind limbs or partial hind and front limb paralysis; 4, tetraparalysis; 5, moribund; 6, death).
as §1, with “PLP^139-151” for “PLP139-151”, “pterostilbene” for “by QuadraMune™”
as §1, with “sulforaphane” for “by QuadraMune™”, “Mice where observed for symptoms at days 10, 20 and 30.” left out

Treg = conditions: in vivo; cited from earlier work
[3] = test system: CD4+, CD25+, FoxP3+ Treg cells; conditions: responding patients; cited from earlier work
[4] = serum, not significantly different

Molecule: C[C@H](CCC(=O)NCC(=O)O)[C@H]1CC[C@H]2[C@@H]3[C@@H](O)C[C@@H]4C[C@H](O)CC[C@]4(C)[C@H]3CC[C@]12C [GUDCA]
- extension of neovascular and avascular areas [1]: no changes

Molecule: C[C@H](CCC(=O)NCCS(=O)(=O)O)[C@H]1CC[C@H]2[C@@H]3[C@@H](O)C[C@@H]4C[C@H](O)CC[C@]4(C)[C@H]3CC[C@]12C [TUDCA, tauroursodeoxycholic acid]
- extension of neovascular and avascular areas [1]: no changes
- expression of farnesoid-x-receptor (FXR) and its target gene FGF15 (acute pancreatitis): downregulated
- pancreatic and intestinal barrier function injury (acute pancreatitis): mitigated
- proliferation and viability of osteoblasts and osteoblast differentiation and mineralization (osteoblasts; 100 nM, 1 μM): significantly increased
- detrimental effects of methylprednisolone (methylprednisolone-induced osteoblast apoptosis) (osteoblasts): neutralized
- CTX level (osteoporosis; [4]): lower
- PINP level (osteoporosis; [4]): higher
- percentage bone volume with respect to total bone volume, bone mineral density, distal femur trabeculae (osteoporosis): increased
- trabecular structures in the distal femur (micro-CT and histology) (osteoporosis): preserved more trabecular structures
- Inflammation and IL-6 production triggered by infection with Brucella abortus (IL-6 production): reduced

Molecule: C[S+]([O-])CCCCN=C=S (stereo not drawn) [sulforaphane]
- EAE Score [2]: reduction in EAE Score

Molecule: CC1=CC(=O)C(C(C)C)=CC1=O [thymoquinone]
- EAE Score [2]: reduction in EAE Score

Molecule: Interferon beta
- Treg activity after initiation of therapy (Treg): renormalization of Treg activity

Molecule: glatiramer acetate
- CD4+, CD25+, FoxP3+ Treg cells in peripheral blood and cerebral spinal fluid [3]: increased levels

Reference: patent publication US20220193170A1, “Nutraceutical Reduction Prevention and/or Reversion of Multiple Sclerosis” (Therapeutic Solutions International, Inc., priority 2020, published 2022)
